The source of these data is patent US20080014272A1, “Compositions and Methods for Treatment of Chronic Pain Conditions” (priority 2006, published 2008).

Molecules are shown by their SMILES.

The nature of data set [1]: Visual analog scale (VAS) of osteoarthritis pain in human osteoarthritis subjects. The data set is classed as in vivo. To be noted: 400 mg bicifadine and/or 800 mg ibuprofen twice daily for seven days; baseline to 3 hours post dose on final day; FIG. 2. The procedure: (§1) 23 adult human subjects with clinically confirmed osteoarthritis (OA) of the hip or knee were selected based on (1) a finding of OA through clinical analysis of hip or knee pain for at least six months, (2) stiffness symptoms that persisted for more than 30 minutes (4) crepitus and (5) score of >40 mm on the visual analog scale (VAS). […]
(§2) Each patient's pain and function levels was rated just prior to administration of the first dose in each treatment period to establish a baseline and three hours after administration of the final dose of each treatment period. Subjects were evaluated according to the visual analog scale (FIG. 2), the Western Ontario and MacMaster Universities Osteoarthritis Index (WOMAC) (FIG. 3) and a global assessment score (FIG. 4).
For the visual analog scale, each subject was asked the following question: “Draw a vertical line on the scale to indicate the average amount osteoarthritis pain you have in your index hip or knee in the prior 24 h period. • No Pain [______] Worst Pain You Can Imagine 100 mm The length of the line from “No Pain” to the vertical line drawn by the patient was then measured to determine the VAS measurement.

Data set [2] in a line: WOMAC Osteoarthritis Index in human osteoarthritis subjects. The class given is in vivo. The note with it: 400 mg bicifadine and/or 800 mg ibuprofen twice daily for seven days; 3 h post-dose on last day; FIG. 3. Here is the method:
as §1, §2
Subjects were also evaluated according to the Western Ontario and MacMaster Universities Osteoarthritis Index (WOMAC) and asked the following series of questions: […]

The nature of data set [3]: Use of rescue medication in acute dental pain clinical trial (Stern et al.). The class given is in vivo, human. Here is the method: These conclusions are further substantiated by the use of rescue medication by subjects in the Stem et al. acute dental pain studies. Table I below summarizes information on the use of rescue medication for patients who took rescue medication among the various treatment groups in the clinical trial reported by Stern et al. (id.) A nonparametric analysis (Median Test) was conducted to evaluate the median latency to rescue medication.
Survival analysis (Kaplan-Meier method, 95% confidence) was performed to compare the treatment groups with regard to time-to-rescue medication. […] The analysis yielded a statistically significant difference among the treatment groups (Log-Rank test, Chi-square=26.9, df=4, P=0.0001). […] In view of the foregoing evidence, the present disclosure documenting efficacy of a reduced, bi-daily or less frequent dosing regimen of bicifadine to yield effective treatment of chronic pain are unexpected. […] It is a surprising benefit, therefore, that a dosing regimen consisting of only one or two doses of bicifadine effectively alleviates symptoms of chronic pain over an extended period. The extended period of efficacy of the novel compositions and dosage forms of the invention provide significant relief of chronic pain symptoms over a period of at least 8 hours, or at least 12 hours, often at least 18 hours, and up to 24 hours or longer.

Data set [4] in a line: Monoiodoacetamide (MIA)-induced osteoarthritis in rats, hind paw weight distribution. The class given is in vivo, Male Wistar rats. The note with it: oral gavage (PO), Day 14 post MIA injection, 1 and 2 hours post-administration; bicifadine 5, 10, 20, 40 or 60 mg/kg, morphine 60 mg/kg; FIG. 1. The procedure: Animals were fed standard rat chow with water available ad libitum.
The rats were anesthetized with 5% volume/volume (“v/v”) isoflurane gas and maintained with 2% v/v isoflurane gas. […] MIA was dissolved in physiologic saline and administered in a volume of 50 μL. The contralateral control knee was injected with 50 μL of physiologic saline. Administration of isoflurane gas was discontinued, and the rats became fully conscious about 5 minutes later.
Shifts in hind paw weight distribution from the right to the left hind paws supporting the right (arthritic) and the left (contralateral control) hind leg knee joints were utilized as an index of joint pain and as a measure of compound efficacy. An incapacitance tester (Model 2KG, Linton Instrumentation, UK) was employed for determination of hind paw weight distribution.
The acute dosing paradigm used herein relates to osteoarthritis signs such as mobility and joint function and osteoarthritis symptoms such as joint pain.

For data set [5] the following is noted: acute dental pain; Stern et al. 2005; cited from earlier work.
The nature of data set [6]: Global Assessment of Study Medication in human osteoarthritis subjects. The data set is classed as in vivo. The note with it: 400 mg bicifadine and/or 800 mg ibuprofen twice daily for seven days; 3 h post-dose on last day; scale 0-4; FIG. 4. Here is the method: 23 adult human subjects with clinically confirmed osteoarthritis (OA) of the hip or knee were selected based on (1) a finding of OA through clinical analysis of hip or knee pain for at least six months, (2) stiffness symptoms that persisted for more than 30 minutes (4) crepitus and (5) score of >40 mm on the visual analog scale (VAS). […] (Altman R. Asch E, Bloch D, Bole G, Borenstein D, Brandt K, et al. The American College of Rheumatology criteria for the classification and reporting of osteoarthritis of the knee. Arthritis Rheum 1986; 29:1039-1049) The subjects were randomized to a sequence of 400 mg of bicifadine twice daily for seven days (B), ibuprofen 800 mg twice daily for seven days (I), placebo twice daily for seven days (P), or 400 mg bicifadine and 800 mg ibuprofen twice daily for seven days (B+I) as shown in Table 3. […]
as §2
Subjects were further evaluated for a global assessment and were asked the following question: […]

Data set [7] can be described thus: Duration of analgesic efficacy and plasma bicifadine levels in acute pain studies. The class given is in vivo, human. To be noted: bicifadine HCl, unit doses about 200 mg, 400 mg, or 600 mg; acute dental pain and bunionectomy pain studies. The procedure: Duration of analgesic efficacy of bicifadine in acute dental pain studies was estimated using a “last observation carried forward” (LOCF) statistical method, and was projected to last up to 6 hours, or even up to 12 hours (see, e.g., Czobor P., et al., Stark J., Beer G., Petti S., Lippa A., Brown J., Beer B.: A Double-Blind, Placebo Controlled Randomized Study of DOV220,075 (bicifadine) SR and Codeine 60 mg in the Treatment of Post-Operative Dental Pain. Presented at the 2nd Annual Scientific Meeting Mar. 20-23, 2003 Chicago, Ill. American Pain Society Abstract Database at http://www.ampainsoc.org/abstract/2003/data/index.html. (Poster #915)); Czobor P., Stark J., Beer G., Brown J., Sunshine A., Konery S., Turpin M., Olson N., Otero A., Lippa A., Beer B.: A two center double-blind, placebo-controlled randomized study of DOV 220,075 (bicifadine) SR and Tramadol 100 mg in the treatment of post-operative dental pain. The Journal of Pain, 2004: 5(1), Supplement 1, p 59. Presented at the Joint APS and Canadian Pain Society Annual Meeting (23rd APS Annual Scientific Meeting) May 6-9, 2004, Vancouver, BC Canada. American Pain Society Abstract Database at http://www.ampainsoc.org/abstract/2004/data/index.html (Poster #801); each incorporated herein by reference). […]

On to `CC(C)Cc1ccc(C(C)C(=O)O)cc1` (centres unmarked) [ibuprofen, reference compound], for which the “Reduction of OA pain as measured by the visual analog scale” value in data set [1] is on record as “no different than treatment with placebo”. Further, in data set [2], the “Improvement of functioning as determined by the WOMAC osteoarthritis index” value was “no better than placebo”.
For the molecule `COc1cccc(C2(O)CCCCC2CN(C)C)c1` (centres unmarked) [Tramadol], the “Time-to-rescue medication vs placebo (Kaplan-Meier survival analysis, Log-Rank test)” value in data set [3] (100-mg, Chi-square=18.7, df=1, P=0.0001) was “significantly less likely to use rescue medication”. In data set [3] (single dose 100 mg), the “Median Time to Rescue Medication” value was 2.45 h, the “Used Rescue Medication (N) No” value was determined as 24 and the “Used Rescue Medication (N) Yes” value is reported as 85.
`Cc1ccc(C23CNCC2C3)cc1` (racemic) [bicifadine, (±)-1-(4-methylphenyl)-3-azabicyclo[3.1.0]hexane]: the “Effect on osteoarthritis-related pain (change in hind paw weight distribution)” value in data set [4] is recorded as “no significant effect”. Also, in data set [5], the “Plasma bicifadine levels associated with the greatest pain relief” value was more than 1000 ng/mL, the “Plasma drug levels associated with significant analgesic efficacy” value is 500 to 1000 ng/mL and the “Plasma drug levels not associated with significant analgesic effects” value is not above 500 ng/mL. Also, the “Global assessment score of study medication” value in data set [6] is “marginally better than treatment with either placebo or ibuprofen alone”. Besides, the “Period of analgesic efficacy for effectively treating acute pain” value in data set [7] is on record as “up to 6 hours”. For the same molecule, in data set [1], the “Reduction of OA pain as measured by the visual analog scale” value is on record as “no different than treatment with placebo”. Moreover, the “Improvement of functioning as determined by the WOMAC osteoarthritis index” value in data set [2] is recorded as “no better than placebo”.
